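96-well plates; 48 h exposure; 5 concentrations. Endpoints by linear interpolation between flanking doses. Not reached: highest tested concentration assigned. Definition used: TGI = concentration required for complete inhibition of growth.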 Where a SMILES comes first, the peptide text is derived from it. Side-chain parts run from the residue outwards. [ ]: non-standard residue; d: D form. The star is where a group is joined. X28 = COC1=CC(=O)N(C(=O)[C@@H](O*)C(C)C)[C@H]1Cc1ccccc1; NMeL = CN[C@@H](CC(C)C)C(=O)O; Cbz = O=C(OCc1ccccc1)*; Boc = CC(C)(C)OC(=O)*
Tests used:
Assay in all cases: inhibition of tumour cell growth, NCI panel, 48 h
[1] = test system: M14 melanoma
[2] = test system: HOP-62 NSCLC
[3] = test system: MDA-MB-435
[4] = test system: TK-10 renal
[5] = test system: OVCAR-4 ovarian
[6] = test system: DU-145 prostate
[7] = test system: MOLT-4 leukemia
[8] = test system: EKVX NSCLC
[9] = test system: A498 renal
[10] = test system: SW-620 colon

Compound	TGI [1]	TGI [2]	TGI [3]	TGI [4]	TGI [5]	TGI [6]	TGI [7]	TGI [8]	TGI [9]	TGI [10]
CC1(C)CC(=O)C2=C(C1)N(c1ccccc1)C1(O)C=CC(=O)C3=C(O)c4ccccc4C(=O)C321 (stereo not drawn)	> 100 µM	> 100 µM	54 µM	52.2 µM	43.9 µM	> 100 µM	> 100 µM	> 100 µM	–	–
[N-]=[N+]=NC(c1cn(C2CC(O)C(CO)O2)c(=O)[nH]c1=O)C(I)I (stereo not drawn)	> 100 µM	> 100 µM	–	> 100 µM	> 100 µM	–	> 100 µM	> 100 µM	> 100 µM	> 100 µM
CCCCCCCCCCCCCCCCCCNC(=S)/N=C/c1c(O)cc(C)oc1=O	41.9 µM	> 100 µM	55.6 µM	35.9 µM	80 µM	> 100 µM	> 100 µM	57.9 µM	–	96 µM
COC1=CC(=O)N(C(=O)[C@@H](OC(=O)[C@@H]2CCCN2C(=O)[C@@H]2CCCN2C(=O)[C@H](CC(C)C)N(C)C(=O)[C@@H](NC(=O)[C@@H](NC(=O)OCc2ccccc2)C(C)C)C(C)C)C(C)C)[C@H]1Cc1ccccc1 (Cbz-VV[NMeL]PP-X28)	> 100 µM	> 100 µM	> 100 µM	> 100 µM	> 100 µM	> 100 µM	–	> 100 µM	56.1 µM	> 100 µM
CC(C)CC(NC(=O)OCc1ccccc1)C(=O)NCCCCC(NC(=O)C(CCCCNC(=O)C(CC(C)C)NC(=O)OCc1ccccc1)NC(=O)C(CCCCNC(=O)C(CC(C)C)NC(=O)OCc1ccccc1)NC(=O)C(CCCCNC(=O)C(CC(C)C)NC(=O)OCc1ccccc1)NC(=O)OC(C)(C)C)C(=O)O (stereo not drawn) (Boc-K([Leu-Cbz])K([Leu-Cbz])K([Leu-Cbz])K([Leu-Cbz])-OH; configuration not given here)	> 25 µM	> 25 µM	> 25 µM	> 25 µM	> 25 µM	> 25 µM	> 25 µM	–	> 25 µM	> 25 µM
CN(C)C(=O)CO/N=C1/C(c2c(O)[nH]c3ccccc23)=Nc2ccccc21	> 100 µM	> 100 µM	> 100 µM	> 100 µM	> 100 µM	> 100 µM	> 100 µM	> 100 µM	–	> 100 µM
O=C(O)C1C2CCC(C2)C1c1ccccc1 (stereo not drawn)	> 100 µM	> 100 µM	> 100 µM	> 100 µM	–	> 100 µM	> 100 µM	> 100 µM	> 100 µM	> 100 µM
OC1NC2CC3NC(O)C(O)NC3CC2NC1O (stereo not drawn)	> 100 µM	> 100 µM	> 100 µM	> 100 µM	> 100 µM	> 100 µM	> 100 µM	> 100 µM	–	> 100 µM
O=C(O)C1Cc2ccccc2OC1=O (stereo not drawn)	> 100 µM	> 100 µM	> 100 µM	> 100 µM	–	> 100 µM	> 100 µM	> 100 µM	–	> 100 µM
Oc1cccc2nc3cc(CN4CCOCC4)c(CN4CCOCC4)cc3nc12	38.9 µM	> 100 µM	–	> 100 µM	> 100 µM	–	> 100 µM	> 100 µM	> 100 µM	> 100 µM
Cc1ccc(C(=O)NC(C)C)cc1N=NN(C)C	> 100 µM	> 100 µM	–	> 100 µM	> 100 µM	–	–	> 100 µM	–	> 100 µM
Cc1noc(C)c1N=Nc1ccc2nonc2c1N	> 100 µM	> 100 µM	> 100 µM	> 100 µM	> 100 µM	> 100 µM	> 100 µM	9.77 µM	–	> 100 µM
CCOC(=O)CC(=Nc1cc(C)on1)N(CC)CC	> 100 µM	> 100 µM	–	> 100 µM	–	–	> 100 µM	> 100 µM	> 100 µM	> 100 µM
COc1ccc2c(c1)-c1c(c3ccccc3n1CCN1CCOCC1)CC2	> 100 µM	74.8 µM	> 100 µM	1.78 µM	> 100 µM	> 100 µM	37.9 µM	63.8 µM	–	> 100 µM
Cc1cc(C)c(N)c(C)c1N	> 100 µM	> 100 µM	–	> 100 µM	–	–	> 100 µM	> 100 µM	> 100 µM	> 100 µM
CC(C)(CO)NC(=O)c1cccc(C(=O)NC(C)(C)CO)c1Br	> 100 µM	> 100 µM	> 100 µM	> 100 µM	> 100 µM	> 100 µM	> 100 µM	> 100 µM	–	> 100 µM
COC(=O)C1=C2Nc3ccccc3C23CCN2C(O)C4(CC5CC67CCOC6CCN6CCC8(c9cccc(OC)c9N(C4)C58O)C67)C4OCCC4(C1)C23 (stereo not drawn)	> 100 µM	> 100 µM	> 100 µM	> 100 µM	> 100 µM	> 100 µM	–	> 100 µM	> 100 µM	> 100 µM
O=C(O)c1ccc(/C=N\N(CCO)C2=NCCN2)cc1	> 100 µM	> 100 µM	> 100 µM	> 100 µM	> 100 µM	> 100 µM	> 100 µM	> 100 µM	–	> 100 µM
CC(=O)O[C@@H]1CC2[C@@H](CCC3Cc4nc5c(nc4C[C@@]32C)CC2CC[C@@H]3C(CC[C@@]4(C)C3CC[C@@H]4C(C)CCCC(C)C)[C@@]2(C)C5)C2C[C@@H]3OC4(CCC(C)CO4)C(C)[C@@H]3[C@]21C (stereo partly drawn)	> 100 µM	> 100 µM	> 100 µM	> 100 µM	> 100 µM	> 100 µM	> 100 µM	> 100 µM	–	> 100 µM
CC[S+](C)c1ccc(-c2c3nc(c(-c4ccc([S+](C)CC)cc4)c4ccc([nH]4)c(-c4ccc([S+](C)CC)cc4)c4nc(c(-c5ccc([S+](C)CC)cc5)c5ccc2[nH]5)C=C4)C=C3)cc1 (stereo not drawn)	> 100 µM	93.5 µM	–	–	> 100 µM	–	67.1 µM	94.8 µM	> 100 µM	> 100 µM
COc1ccc2c(c1)Cc1c-2[nH]c2cc3c(cc2c1=O)OCO3	51.2 µM	45.1 µM	–	83.3 µM	> 100 µM	–	41.9 µM	> 100 µM	–	> 100 µM
CCC(c1nc2ccccc2c(=O)n1NC(=O)C(C)(C)C)C1(O)CCCCC1 (stereo not drawn)	> 100 µM	> 100 µM	> 100 µM	–	> 100 µM	> 100 µM	> 100 µM	> 100 µM	> 100 µM	> 100 µM

— PubChem BioAssay (NCI)
